Tests used:
[1] = tested on: Chlamydomonas reinhardtii WT cultures; experiment: H2 production ± CCCP, Clark type hydrogen electrode, WT cultures; type: cell-based; conditions: CCCP added to WT culture
Method: (§1) H2 concentrations were measured in the liquid phase and the gaseous head space above, both for WT and Stm6 cultures (cell density of OD750 nm=0.8). Dissolved H2 concentrations were measured in 1 liter dark-adapted cell cultures in TAP medium replete with, or depleted of, sulfur using a Clark type hydrogen electrode (Unisense PA2000, Denmark) upon white light illumination. H2 concentrations in the presence and absence of 5 μM carbonylcyanide m-chlorophenylhydrazone (CCCP) were measured using dark adapted cultures (1 h) before and after illumination (white light, 300 μmol m^−2·s^−1) The H2 concentration in the gaseous head space was measured using a mass spectrometer (Delta Finnigan MAT). Cell cultures were dark-adapted for 30 min in a weak vacuum to deplete the medium and headspace of O2 and H2, prior to illumination with continuous or pulsed (3.3 Hz frequency, 5 μs flashes; light intensity range of 15-3000 μmol·m^−2·s^−1) white light.

[2] = tested on: Chlamydomonas reinhardtii Stm6 cultures; experiment: H2 production ± CCCP, Clark type hydrogen electrode, Stm6 cultures; type: cell-based
Method: as §1

N#CC(C#N)=NNc1cccc(Cl)c1 [CCCP, carbonylcyanide m-chlorophenylhydrazone]
effect of CCCP on H2 production [1]: hardly any effect
period of increased H2 production with CCCP ([2]; 5 μM CCCP, Stm6 culture): at least 30 min
H2 production rate with CCCP, higher than in the WT ([2]; 5 μM CCCP, dark adapted cultures (1 h), white light 300 μmol m^−2·s^−1, relative to WT): ~1500%
H2 production rate in the presence of CCCP, times higher than the WT ([2]; Stm6 in the presence of CCCP, relative to WT): 15 ×
